Results on 14 compounds are retold here after paper PMC3393750, “Small Molecule Inhibitors of the LEDGF Site of Human Immunodeficiency Virus Integrase Identified by Fragment Screening and Structure Based Design” (PLoS ONE, 2012).

Each structure is given as a SMILES string. Like-named read-outs stand apart in the source and are kept apart here.

One series relates to LEDGF site of HIV IN. The arrangement: method as in PMID 21767569. The note with it: read-out: IC50 AS assay for binding at the LEDGF site; cited from earlier work.
For series [1], the target named is T1, HIV IN (Human immunodeficiency virus type 1 group M subtype B, UniProt P12497). The note with it: read-out: IC50 active site directed strand transfer assay; cited from earlier work.
The target of series [2] is T2, His6-tagged HIV IN / Flag-tagged LEDGF interaction (Human immunodeficiency virus type 1 group M subtype B, UniProt P12497).
T2 construct: Hexa-His tagged full length HIV IN was expressed and purified as follows; made in house; host or cells: E. coli BL21(DE3), pET28b(+)
The series is described as follows: IN-LEDGF AlphaScreen (AS) assay. Type of series: binding, HIV-1. The note with it: 30 nM IN, 30 nM Flag-LEDGF, 30°C. The method, then:
(§1) For the IN-LEDGF AS assay, compound dilutions and His6-tagged IN (30 nM final concentration) were initially incubated together in 10 µl of reaction buffer (25 mM Tris-Cl pH 7.5, 25 mM NaCl, 5 mM MnCl2, 5 mM MgCl2, 5 mM BME, 50 µg/ml bovine serum albumin and 0.05% (v/v) Tween-20) for 10 min at room temperature in AlphaPlate™-384 SW plates (Perkin-Elmer). Subsequently, 10 µl reaction buffer containing Flag-tagged LEDGF (30 nM final concentration), AS Ni-chelate donor beads (Perkin-Elmer; 5 µg/ml final) and AlphaLISA anti-FLAG acceptor beads (Perkin-Elmer; 5 µg/ml final) were added and protein association allowed to occur for 1 hour in the dark at 30°C before emission from the donor beads was measured using a PHERAstar FS plate-reader (BMG Labtech). Counter screen assays to ensure the compounds were not inhibiting the binding of the His or FLAG tags to the beads or quenching of the signal, were performed under the same reaction conditions except that a Flag-His6 fusion protein was used (20 nM final) instead of individual His6-tagged IN and Flag-tagged LEDGF proteins, and the initial 10 min incubation at room temperature was omitted.

Series [3] has as its target T3, HIV integrase catalytic core domain core3H (C56S, F139D, F185H) (Human immunodeficiency virus type 1 group M subtype B, UniProt P12497, C1203S/F1286D/F1332H).
T3 construct: catalytic core domain (CCD) IN (residues 50 to 210) containing the mutations C56S, F139D and F185H (core3H); made in house; host or cells: E. coli, pET28b(+)
The experiment in a line: SPR binding to core3H. The note with it: construct not given. The method, then:
Core3H and core4H proteins (∼3×10^−8 moles) were “minimally” biotinylated on ice for 2 hours using an equimolar concentration of EZ-Link® Sulfo-NHS-LC-LC-Biotin (Pierce). To remove unreacted biotin reagent, biotinylated proteins were passed through a Superdex 75 (10/300 GL) column equilibrated in ‘SPR capture’ buffer (50 mM HEPES pH 7.4, 150 mM NaCl, 0.05% (v/v) Tween20, 5 mM DTT, 10 mM MgCl2). The eluted proteins were stored frozen in 50 µl aliquots at −70°C. Streptavidin (Sigma) was immobilized at 25°C onto a CM7 sensor chip (GE Healthcare) docked in a Biacore T200 upgrade instrument (GE Healthcare) using a previously described procedure resulting in immobilization levels of approximately 12000 RU of protein being coupled in all flow cells. The biotinylated core IN proteins were captured onto a Streptavidin chip surface in SPR capture buffer by injecting at 5 µL/min for 5 min over a single flow cell, typically resulting in immobilization of approximately 2300 RU of target protein. A minimally-biotinylated tyrosine kinase domain of CSF-1-R was captured (∼4300 RU) in a separate flow cell to provide for an unrelated negative control. […] All SPR binding experiments were performed at 20°C in SPR binding buffer (50 mM HEPES pH 7.4, 150 mM NaCl, 0.05% (v/v) Tween20, 5 mM DTT, 10 mM MgCl2, 5% (v/v) DMSO). Small molecules stock solutions were serially diluted (2-fold) in SPR binding buffer and injected for 30 sec contact time at 60 µL/min and then allowed to dissociate for 60 sec. The entire concentration series for each compound was performed in triplicate.
Raw sensorgram data were processed, solvent corrected and double referenced using Scrubber software (BioLogic Software, Australia). For easy comparison between data sets, all experiments were normalized using a normalization formula of Giannetti et al. To determine the binding affinity (KD), responses at equilibrium for each analyte were fitted to a 1∶1 steady state affinity model available within Scrubber.

Series [4] is described as follows: Cell toxicity counter screen of virus infectivity assay. Format: cell-based. The note with it: human, HuT78 cells. The method, then:
(§2) HuT78 cells were seeded into 96 well microtiter plates at 50,000 cells per 50 µl per well in RF-10 containing 2 µg/ml polybrene (RF-10/2). Compounds were prepared to 4× final concentration in RF-10/2, and 30 µl was added to cells. HIV-1NL4–3 (40 µl in RF-10/2 containing 1600 plaque forming units (pfu)) was added to each well or 40 µl of RF-10/2 was added to the negative controls, and when assaying compound cytotoxicity. pfu were determined by titrating virus stocks on HT4LacZ cells as described by Rocancourt et al. After 24 hours, an additional 90 µl of media or media containing 1× compound was added to each well. At 4 days post-infection, 100 µl of media was removed from each well and replaced with 100 µl of fresh media with or without compound. 48 hours later supernatants were harvested and levels of extracellular p24 determined. Supernatants were diluted 1 in 10,000 and p24 levels assayed using the Vironostika p24 assay kit.

For a further series, the system named is HIV-1NL4-3. The experiment in a line: Virus infectivity assay (p24) in HuT78 cells. Format: cell-based. The note with it: Human immunodeficiency virus 1, p24 production. The method, then: as §2
In another series the test system is Flag-His6 fusion protein. The experiment in a line: AlphaScreen counter screen. The note with it: Flag-His6 fusion protein 20 nM. The method, then:
as §1, with “omitted. The specificity of FLAG-LEDGF for IN binding was confirmed by competing the FLAG-LEDGF with untagged LEDGF. At a 1∶1 molar ratio with FLAG-LEDGF, untagged LEDGF reduced the AS signal by 50%.” for “omitted.”

Series [5] addresses T1, HIV IN. The series is described as follows: Strand transfer assay which did not contain LEDGF. Format: biochemical. The note with it: without LEDGF; data not shown.
Series [6] deals with HIV-1 with IN N155H/E92Q (NHEQ). The series is described as follows: Single-round infectivity assay in 293T cells, IN NHEQ mutant. Format: cell-based. The note with it: Human immunodeficiency virus 1, HEK-293T, read-out: EC50 cell infectivity assay, IN NHEQ. The method, then:
(§3) Single-round infectivity assays were performed with 293T cells. […]. […] Culture supernatants containing VSV-G pseudotyped virions were harvested 64 hours post-transfection, clarified by centrifugation to remove cell debris, and stored at −80°C. HIV IN mutations known to confer resistance to published IN inhibitors were prepared by site directed mutagenesis of the pol (IN) gene in a shuttle vector which contained the majority of the HIV gag and pol sequence. The mutated IN coding region was then sequence verified and exchanged for the wild-type coding sequence in the pHIV env-Luc reporter virus plasmid. Single round infection assays were conducted in 293T cells seeded in 96 well plates 16 hours prior to compound addition. Compounds were pre-incubated with cells for 4 hours at 37°C followed by the addition of sufficient virus to generate approximately 10,000 Luciferase light units in the absence of compound. Luciferase readout was measured 48 hours post-infection using the Bright-Glo™ reagent (Promega) according to the manufacturer’s instructions.

The subject of series [7] is HIV-1 with IN Q148H/G140S (QHGS). The experiment in a line: Single-round infectivity assay in 293T cells, IN QHGS mutant. Format: cell-based. The note with it: Human immunodeficiency virus 1, HEK-293T, read-out: EC50 cell infectivity assay, IN QHGS. The method, then: as §3
For series [8], the target named is T1, HIV IN. The note with it: read-out: IC50 inhibition of strand transfer activity of HIV IN; cited from earlier work.
In series [9] the test system is HIV-1. The arrangement: method as in PMID 20473303. The note with it: MT-4 cells; read-out: EC50 HIV-1 infection of MT-4 cells; cited from earlier work.
Series [10] deals with HIV-1. The arrangement: method as in PMID 20473303. The note with it: PBMC cells; read-out: EC50 HIV-1 infection of PBMC cells; cited from earlier work.
In series [11] the test system is LEDGF interaction with IN. Set-up: method as in PMID 20473303. The note with it: read-out: AS IC50; cited from earlier work.
The target of series [12] is T1, HIV IN. The note with it: cited from earlier work.
Series [13] deals with T1, HIV IN. The note with it: read-out: IC50 strand transfer; cited from earlier work.
Another series concerns HIV-1 with wild type IN. The experiment in a line: Single-round infectivity assay in 293T cells, wild type IN. Type of series: cell-based. The note with it: Human immunodeficiency virus 1, HEK-293T, read-out: EC50 cell infectivity assay, wild type IN. The method, then:
as §3

With `O=C(O)C(O)=CC(=O)c1cn(Cc2ccc(F)cc2)c2cccc(O)c12` [CHI-1043, 4-[1-(4-Fluorobenzyl)-4-hydroxy-1H-indol-3-yl]-2-hydroxy-4-oxobut-2-enoic acid], the figures for the IC50 with LEDGF site of HIV IN and at HIV IN [1] were 36 µM and 0.14 µM, respectively.
`O=C1Cc2ccccc2/C1=C\c1ccc2c(c1C(=O)O)OCO2` [Compound 2] had an IC50 in [2] of 200 µM.
For `O=C(O)c1c(/C=C2\c3ccccc3CC2O)ccc2c1OCO2` (stereo not shown) [Compound 3], the midpoint of inhibition in series [2], the IC50, lay at 270 µM.
Consider `O=C(O)c1c(CN2Cc3ccccc3C(=O)N(Cc3ccccc3)C2)ccc2c1OCO2` [Compound 4], for which the “binding in the SPR assay (in words)” value in series [3] is reported as “did not bind”. Moreover, in [4], the midpoint of cytotoxicity, the CC50 at 6 days, lay at 265 µM. In series [2], this compound had an IC50 of 110 µM. This compound also came in with an EC50 in the series on HIV-1NL4-3 of 275 µM.
Regarding `COc1ccc(CN2CN(Cc3ccc4c(c3C(=O)O)OCO4)Cc3ccccc3C2=O)cc1` [Compound 5], in [2], the IC50 amounted to 600 µM.
`COc1ccc(CNC(=O)c2ccccc2CNCc2ccc3c(c2C(=O)O)OCO3)cc1` [Compound 6]: the “binding in the SPR assay (in words)” value in series [3] is “binding could not be detected”. The IC50 in [2] stood at 270 µM.
On to `COc1ccc(CNC(=O)c2ccccc2CN(C)Cc2ccc3c(c2C(=O)O)OCO3)cc1` [Compound 7], for which the IC50 in [2] amounted to 220 µM.
In the case of `CN(Cc1ccccc1C(=O)NCC1CCCCC1)Cc1ccc2c(c1C(=O)O)OCO2` [Compound 8], the “binding in the SPR assay (in words)” value in series [3] is “loss of SPR activity”. The same compound displayed an IC50 in [2] of 100 µM.
For `C=CCN(Cc1ccccc1C(=O)NCc1ccc(OC)cc1)Cc1ccc2c(c1C(=O)O)OCO2` [Compound 9], the “binding in the SPR assay (in words)” value in series [3] was “retained SPR activity”. Also, in [2], half-maximal inhibition (IC50) required 815 µM.
Consider `C=CCN(Cc1ccccc1C(=O)NC(CCC)c1ccc(OC)cc1)Cc1ccc2c(c1C(=O)O)OCO2` (stereo not shown) [Compound 10], for which the IC50 in the series on Flag-His6 fusion protein came out at 175 µM; in series [2] it was 29 µM. Further, the “activity in strand transfer assay” value at HIV IN [5] was “inactive”.
The compound `C=CCN(Cc1ccccc1C(=O)NC(c1ccc(OC)cc1)c1ccc(OC)cc1)Cc1ccc2c(c1C(=O)O)OCO2` [Compound 11] came in with an IC50 in the series on Flag-His6 fusion protein of 145 µM. For the same compound, the EC50 in [6] is 37 µM; in the series on HIV-1NL4-3 it was 29 µM; in series [7], 54 µM. For the same compound, at HIV IN [5], the “activity in strand transfer assay” value was “inactive”. Moreover, the CC50 at 6 days in series [4] is over 100 µM.
Regarding `CCCC(C(=O)O)c1c(C)nc2ccc(Cl)cc2c1-c1ccccc1` (stereo not shown) [LEDGIN-6], the IC50 at HIV IN [8] is 19.5 µM; in series [11], 1.37 µM. Also, the results for the EC50 in the series with HIV-1 [9] and with HIV-1 [10] were 2.73 µM and 3.45 µM, respectively.
Turning to `O=C(NCC1CCCCC1)c1cc(S(=O)(=O)N2CCCCC2)cc(O)c1O` [N-(cyclohexylmethyl)-2,3-dihydroxy-5-(piperidin-1-ylsulfonyl) benzamide], the results for the IC50 at HIV IN [12] and on HIV IN [13] were 8 µM and 19 µM, respectively.
As for `Cc1nnc(C(=O)NC(C)(C)c2nc(C(=O)NCc3ccc(F)cc3)c(O)c(=O)n2C)o1` [raltegravir, reference compound], the figures for the EC50 (in [6]; in the series with HIV-1 with wild type IN; in series [7]) were over 1 µM, 0.01 µM and over 1 µM, respectively.
